Experimental data published in US20180310561A1 (priority 2015, published 2018).

Legend:
Botrytis cinerea = test: Activity against the grey mold Botrytis cinerea in the microtiterplate test; format: cell-based; conditions: relative growth vs active compound-free control (100%), MTP measured at 405 nm 7 days after inoculation
Septoria tritici = test: Activity against leaf blotch on wheat caused by Septoria tritici (microtiter plate); format: cell-based; conditions: relative growth vs active compound-free control (100%), MTP measured at 405 nm 7 days after inoculation
Leptosphaeria nodorum = test: Activity against wheat leaf spots caused by Leptosphaeria nodorum (microtiter plate); format: cell-based; conditions: relative growth vs active compound-free control (100%), MTP measured at 405 nm 7 days after inoculation
Pyricularia oryzae = format: cell-based; conditions: relative growth vs active compound-free control (100%), MTP measured at 405 nm 7 days after inoculation
Alternaria solani = test: Activity against early blight caused by Alternaria solani (microtiter plate); format: cell-based; conditions: relative growth vs active compound-free control (100%), MTP measured at 405 nm 7 days after inoculation
Fusarium culmorum = test: Green house: control of culm rot on pearl millet caused by Fusarium culmorum; format: in vivo; conditions: 63 ppm spray on pearl millet seedlings; inoculated 7 days later; % diseased leaf area assessed after 6 days; untreated control 90
Description: The spray solutions were prepared in several steps:
The stock solution were prepared: a mixture of acetone and/or dimethylsulfoxide and the wetting agent/emulsifier Wettol, which is based on ethoxylated alkylphenoles, in a relation (volume) solvent-emulsifier of 99 to 1 was added to 25 mg of the compound to give a total of 5 ml. Water was then added to total volume of 100 ml.
This stock solution was diluted with the described solvent-emulsifier-water mixture to the given concentration.
Pot-grown pearl millet seedlings were sprayed to run-off with an aqueous suspension, containing the concentration of active ingredient or their mixture as described below.The plants were allowed to air-dry. Seven days later the plants were inoculated with an spore suspension of Fusarium culmorum in a aqueous biomalt solution. Then the trial plants were immediately transferred to a humid chamber. After 6 days at 23-25° C. and a relative humidity close to 100% the extent of fungal attack on the leaves was visually assessed as % diseased leaf area.

SMILES	Growth (%) at 32 ppm Botottis cinerea (Botrytis cinerea) [%]	Growth (%) at 32 ppm Septona triad (Septoria tritici) [%]	Growth (%) at 31 ppm Leptosphaeria nodorum (Leptosphaeria nodorum) [%]	Disease (%) at 63 ppm (Fusarium culmorum) [%]	further results
Cc1ccc(C2=CC(C)(C)Cc3ccccc32)cc1C	84	93			
Cc1cc(C2=NC(C)(C)Cc3ccccc32)cnc1C			72		Growth (%) at 31 ppm Pyricularia (Pyricularia oryzae): 23%; Growth (%) at 31 ppm Alternaria solanioryzae (Alternaria solani): 47%
Cc1cc(C2=NC(C)(C)Cc3c(Br)cccc32)cnc1C [I-1, 5-Bromo-1-(5,6-dimethyl-3-pyridyl)-3,3-dimethyl-4H-isoquinoline]	0	0		53	
Cc1cc(C2=NC(C)(C)Cc3c(F)cccc32)cnc1C [drawing 1380]			39		
Cc1cc(C2=NC(C)(C)Cc3c(F)cccc32)cnc1C [drawing 1382]				88	
